# According to patent US20230391786A1, “cGAS INHIBITORS” (Eli Lilly and Company, priority 2022, published 2023):
# Counter-ions that a name gives are not always drawn. Like-named read-outs stand apart in the source and are kept apart here.
# Experiments:
# recombinant human cGAS = recombinant human cGAS (Homo sapiens (Human), UniProt Q8N884); test: In vitro inhibition assay of cGAS activity (cGAMP production, RapidFire mass spectrometry); assay type: biochemical; conditions: 10 nM recombinant human cGAS, 60 nM 75-bp dsDNA, ATP, GTP, room temperature 3 hours, read-out: IC50 (μM), In vitro inhibition assay for Compounds 95-348
# Procedure, shortened: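 Full-length His6-tagged human cGAS (10 nM, E. coli-expressed) was incubated 3 h at room temperature with 60 nM 75-bp dsDNA, ATP, 50 μM GTP and compound at pH 7.5 with 5 mM MgCl2. cGAMP formation was measured by RapidFire mass spectrometry, and IC50 was taken from a 4-parameter logistic fit.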
# [1] = system: cGAS activity in THP1 cells (IFNb as marker); test: Cellular assay to measure cGAS activity (IFNb production in PMA-differentiated THP1 cells stimulated by RDG-Adenovirus-GFP); assay type: cell-based, human; conditions: PMA differentiated, RDG-Adenovirus-GFP 1000 MOI, IFNb AlphaLISA, overnight incubation, read-out: IC50 (μM), Cellular assay for Compounds 95-348
# Procedure, shortened: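 PMA-differentiated THP1 cells were infected with RDG-Adenovirus-GFP at 1000 MOI for 4 h, then exposed overnight to test compounds. IFNb in the supernatant was quantified by AlphaLISA as a cGAS activity marker, and IC50 was fitted with a 4-parameter logistic equation.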
# [2] = Homo sapiens, THP-1, THP1 cells
# recombinant human cGAS, sequence (Q8N884 whole entry): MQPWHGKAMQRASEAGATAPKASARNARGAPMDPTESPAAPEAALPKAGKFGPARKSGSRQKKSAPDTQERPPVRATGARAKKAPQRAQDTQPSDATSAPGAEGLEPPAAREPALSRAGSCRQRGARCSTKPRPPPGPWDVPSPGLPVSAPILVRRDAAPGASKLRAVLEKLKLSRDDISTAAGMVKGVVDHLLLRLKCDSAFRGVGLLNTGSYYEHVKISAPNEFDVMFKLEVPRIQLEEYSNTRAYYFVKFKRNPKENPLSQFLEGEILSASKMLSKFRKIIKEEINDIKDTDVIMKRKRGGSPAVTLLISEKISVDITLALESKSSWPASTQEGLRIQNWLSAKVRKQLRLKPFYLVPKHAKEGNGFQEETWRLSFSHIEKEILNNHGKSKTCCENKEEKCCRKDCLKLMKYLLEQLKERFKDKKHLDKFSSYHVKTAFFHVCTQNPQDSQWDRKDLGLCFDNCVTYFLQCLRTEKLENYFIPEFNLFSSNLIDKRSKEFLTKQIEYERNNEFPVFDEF
IC50 (recombinant human cGAS) [µM],IC50 ([1]; THP1 cells) [µM],"IC50 [1, 2] [µM]",SMILES
0.0146,2.73,–,"O=C(CO)NC1Cc2c(-c3cn[nH]c3)c3ccc(Cl)c(Cl)c3n2C1 (single isomer, unassigned) [Example 247, N-(5,6-Dichloro-9-(1H-pyrazol-4-yl)-2,3-dihydro-1H-pyrrolo[1,2-a]indol-2-yl)-2-hydroxyacetamide]"
0.0561,–,2.14,"N#CCOc1cc(Cl)c(Cl)c2c1c(-c1cn[nH]c1)c1n2CCN(C(=O)c2nccnc2C(=O)N2CCCCC2)C1 [Example 295, 2-((6,7-Dichloro-2-(3-(piperidine-1-carbonyl)pyrazine-2-carbonyl)-10-(1H-pyrazol-4-yl)-1,2,3,4-tetrahydropyrazino[1,2-a]indol-9-yl)oxy)acetonitrile]"
0.0154,–,2.27,"O=S(=O)(CCn1cnnn1)NC1CCc2c(-c3cn[nH]c3)c3ccc(Cl)c(Cl)c3n2C1 (stereo not shown) [Example 120, N-(3,4-Dichloro-10-(1H-pyrazol-4-yl)-6,7,8,9-tetrahydropyrido[1,2-a]indol-7-yl)-2-(1H-tetrazol-1-yl)ethane-1-sulfonamide]"
0.0184,–,1.29,"OCC(CO)COc1cc(Cl)c(Cl)c2[nH]cc(-c3cn[nH]c3)c12 [Example 194, 2-[[6,7-Dichloro-3-(1H-pyrazol-4-yl)-1H-indol-4-yl]oxymethyl]propane-1,3-diol]"
0.0931,–,2.83,"Cn1cc(-n2c(CO)c(-c3cn[nH]c3)c3ccc(Cl)c(Cl)c32)nn1 [Example 166, [6,7-Dichloro-1-(1-methyltriazol-4-yl)-3-(1H-pyrazol-4-yl)indol-2-yl]methanol]"
0.0652,–,2.99,"OC/C=C/CNc1cc(Cl)c(Cl)c2[nH]cc(-c3cn[nH]c3)c12 [Example 121, (E)-4-((6,7-Dichloro-3-(1H-pyrazol-4-yl)-1H-indol-4-yl)amino)but-2-en-1-ol]"
0.0399,–,6.27,"O=C(Cc1cnccn1)N1CCn2c(c(-c3cn[nH]c3)c3ccc(Cl)c(Cl)c32)C1 [Example 267, 1-[6,7-Dichloro-10-(1H-pyrazol-4-yl)-3,4-dihydro-1H-pyrazino[1,2-a]indol-2-yl]-2-pyrazin-2-yl-ethanone]"
0.0408,–,1.6,"NC(=O)Cn1cc(-n2cc(-c3cn[nH]c3)c3ccc(Cl)cc32)nn1 [Example 227, 2-[4-[6-Chloro-3-(1H-pyrazol-4-yl)indol-1-yl]triazol-1-yl]acetamide]"
0.0124,–,0.281,"O=C(Nc1cc(Cl)c(Cl)c2[nH]nc(-c3cn[nH]c3)c12)C(F)F [Example 337, N-(6,7-Dichloro-3-(1H-pyrazol-4-yl)-1H-indazol-4-yl)-2,2-difluoroacetamide]"
0.0275,–,3.3,"CNC(=O)CC(=O)NC1CCc2c(-c3cn[nH]c3)c3ccc(Cl)c(Cl)c3n2C1 (stereo not shown) [Example 141, N′-[3,4-Dichloro-10-(1H-pyrazol-4-yl)-6,7,8,9-tetrahydropyrido[1,2-a]indol-7-yl]-N-methyl-propanediamide]"
0.0249,–,1.72,"CC(=O)N[C@@H]1CCn2c1c(-c1cn[nH]c1)c1c(OCC#N)cc(Cl)c(Cl)c12 [Example 234, (R)—N-(5,6-Dichloro-8-(cyanomethoxy)-9-(1H-pyrazol-4-yl)-2,3-dihydro-1H-pyrrolo[1,2-a]indol-1-yl)acetamide]"
0.0186,–,3.66,"CC(=O)NCCS(=O)(=O)NC1CCc2c(-c3cn[nH]c3)c3ccc(Cl)c(Cl)c3n2C1 (stereo not shown) [Example 119, N-(2-(N-(3,4-Dichloro-10-(1H-pyrazol-4-yl)-6,7,8,9-tetrahydropyrido[1,2-a]indol-7-yl)sulfamoyl)ethyl)acetamide]"
0.0288,–,1.12,"CN1CCOC[C@H]1CC(=O)N1CCn2c(c(-c3cn[nH]c3)c3c(OCC#N)cc(Cl)c(Cl)c32)C1 [Example 115, (R)-2-((6,7-Dichloro-2-(2-(4-methylmorpholin-3-yl)acetyl)-10-(1H-pyrazol-4-yl)-1,2,3,4-tetrahydropyrazino[1,2-a]indol-9-yl)oxy)acetonitrile]"
0.03,–,0.938,"CC(=O)N1CCn2c(c(-c3cn[nH]c3)c3c(NCC#N)cc(Cl)c(Cl)c32)C1 [Example 254, 2-[[2-Acetyl-6,7-dichloro-10-(1H-pyrazol-4-yl)-3,4-dihydro-1H-pyrazino[1,2-a]indol-9-yl]amino]acetonitrile]"
0.064,–,> 10,"NCCCCCC(=O)NCC(=O)NC1CCc2c(-c3cn[nH]c3)c3ccc(Cl)c(Cl)c3n2C1 (stereo not shown) [Example 196, 6-Amino-N-[2-[[3,4-dichloro-10-(1H-pyrazol-4-yl)-6,7,8,9-tetrahydropyrido[1,2-a]indol-7-yl]amino]-2-oxo-ethyl]hexanamide formic acid salt]"
0.0361,–,2.19,"O=C(NC1CCc2c(-c3cn[nH]c3)c3ccc(Cl)c(Cl)c3n2C1)C1(O)CCOCC1 (stereo not shown) [Example 190, N-[3,4-Dichloro-10-(1H-pyrazol-4-yl)-6,7,8,9-tetrahydropyrido[1,2-a]indol-7-yl]-4-hydroxy-tetrahydropyran-4-carboxamide]"
0.0398,–,> 10,"O=C(CN1C(=O)CSC1=O)N1CCn2c(c(-c3cn[nH]c3)c3ccc(Cl)c(Cl)c32)C1 [Example 307, 3-(2-(6,7-Dichloro-10-(1H-pyrazol-4-yl)-3,4-dihydropyrazino[1,2-a]indol-2(1H)-yl)-2-oxoethyl)thiazolidine-2,4-dione]"
0.0206,–,0.56,"O=C(Nc1cc(Cl)c(Cl)c2c1c(-c1cn[nH]c1)c1n2CCN(C(=O)[C@@H]2COCCO2)C1)C(F)F [Example 273, N-[6,7-Dichloro-2-[(2 S)-1,4-dioxane-2-carbonyl]-10-(1H-pyrazol-4-yl)-3,4-dihydro-1H-pyrazino[1,2-a]indol-9-yl]-2,2-difluoro-acetamide]"
0.0704,–,2.73,"O=C(NCc1[nH]c2c(Cl)c(Cl)ccc2c1-c1cn[nH]c1)C1COC1 [Example 224, N-[[6,7-Dichloro-3-(1H-pyrazol-4-yl)-1H-indol-2-yl]methyl]oxetane-3-carboxamide]"
0.0331,–,> 10,"CC(=O)NCC(=O)NC1CCn2c1c(-c1cn[nH]c1)c1ccc(Cl)c(Cl)c12 (stereo not shown) [Example 236, 2-Acetamido-N-(5,6-dichloro-9-(1H-pyrazol-4-yl)-2,3-dihydro-1H-pyrrolo[1,2-a]indol-1-yl)acetamide]"
0.0131,–,0.163,"O=C(Nc1cc(Cl)c(Cl)c2[nH]c(CO)c(-c3cn[nH]c3)c12)C(F)F [Example 131, N-(6,7-Dichloro-2-(hydroxymethyl)-3-(1H-pyrazol-4-yl)-1H-indol-4-yl)-2,2-difluoroacetamide]"
0.0127,–,3.14,"N#CCOc1cc(Cl)c(Cl)c2c1c(-c1cn[nH]c1)c1n2CCN(CCO)C1=O [Example 142, 2-[[6,7-Dichloro-2-(2-hydroxyethyl)-1-oxo-10-(1H-pyrazol-4-yl)-3,4-dihydropyrazino[1,2-a]indol-9-yl]oxy]acetonitrile]"
0.0757,–,> 10,"O=C(O)[C@@H]1CCCN1C(=O)c1[nH]c2c(Cl)c(Cl)ccc2c1-c1cn[nH]c1 [Example 258, (2 S)-1-[6,7-Dichloro-3-(1H-pyrazol-4-yl)-1H-indole-2-carbonyl]pyrrolidine-2-carb oxylic acid]"
